Non-standard residues stand in square brackets, D forms with d. Residues, ends and D or L forms follow the SMILES beside them. Phe(2-F) = N[C@@H](Cc1ccccc1F)C(=O)O; Orn = NCCC[C@H](N)C(=O)O; Dab = NCC[C@H](N)C(=O)O
How the values were obtained:
[1] = target: bovine serum albumin (BSA) (Bos taurus, UniProt P02769); assay: Fluorescence quenching of BSA by peptides L1–3
Description: Fluorescence spectroscopy was carried out to characterize the mechanism of the interaction between three plasma proteins, BSA, AAG, and GGF, with the studied peptides. The fluorescence spectra of protein were collected during titration of L1–L3. The excitation wavelength was set at λ = 280 nm (both Trp and Tyr residues were excited).
To confirm this, the fluorescence data were further analyzed by the Stern–Volmer Equation (1) after correction due to the infer filter effect (2):(1) F0/F=1+kqτ[Q]=1+KSV (2) Fcorr=Fobs10^(Aex+Aem)/2 where F0 and F are the fluorescence intensities (after correction) of the protein and protein in the presence of L1–3, respectively, kq is the quenching rate constant, τ0 the average lifetime, [Q] is the L1–3 concentration, Ksv is the Stern–Volmer constant, and Fcorr, and Fobs are the corrected and observed fluorescence intensities, respectively. Aex and Aem are the absorbance values at excitation and emission wavelengths, respectively. A linear regression fit was used to calculate the value of the Stern–Volmer constant (Ksv). Then, assuming the average lifetime of the fluorophore in the excited state for a biomolecule as 10^−8 s, the quenching rate constant (kq) was computed. For dynamic quenching, the maximum scatters collision quenching rate constant for different quenchers with the biopolymers was reported to be 2 × 10^10 dm^3mol^−1s^−1 [55, 56]. […] Collisional quenching occurs when the excited-state fluorophore is deactivated by contact with some other molecule in solution (by collisions). […] This is a dynamic mechanism of quenching. The quenching constant characterizes the quenching mechanism. The maximum value for collisional quenching is 2 × 10^10 dm^3mol^−1s^−1. […] For further confirmation, measurements were made at, in addition to 297 K, temperatures 303 and 308 K. Experimental data points were fitted and analyzed using Equation (1).
Both for the complexes with BSA and with GGF, the binding constant (Kb) and the binding stoichiometry (n) were calculated. […] The values of Kb and n were calculated from the slope and the intercept of the log [(F0 − F)/F] versus log [Q] plot (Figure 2).
The forces involved in the interaction can be identified by measurement at different temperatures and then by thermodynamic analysis. The signs of the thermodynamic parameters identify the type of interactions. The enthalpy change (ΔH°), the entropic change (ΔS°), and the free energy change (ΔG°) were calculated from Equations (4) and (5):(4) […]=−ΔH^°/RT+ΔS^°/R (5) ΔG^°=ΔH^°−TΔS^°=−RTlnKb where Kb is the binding constant and R is the universal gas constant. To determine the thermodynamic parameters, the van’t Hoff plot was first conducted, i.e., the temperature dependence of the binding constant, according to Equation (4). The Kb values at the three temperatures were fitted by the linear regression method. The values of ΔH and ΔS were calculated from the slope and intercept at the fitted line. Next, the free energy change (ΔG°) was obtained from Equation (5).

BSA = target: T1, BSA (Bos taurus, UniProt P02769); conditions: 298 K, one-to-one stoichiometry; cited from earlier work
T1 construct: purchased Sigma Aldrich
Description: The enthalpy change (ΔH°), the entropic change (ΔS°), and the free energy change (ΔG°) were calculated from Equations (4) and (5):(4) […]=−ΔH^°/RT+ΔS^°/R (5) ΔG^°=ΔH^°−TΔS^°=−RTlnKb where Kb is the binding constant and R is the universal gas constant. To determine the thermodynamic parameters, the van’t Hoff plot w ...

[2] = 297 K, BSA 1.0 µM, phosphate buffer
[3] = 308 K, BSA 1.0 µM, phosphate buffer

Chain of bovine serum albumin (BSA) (P02769 25-607): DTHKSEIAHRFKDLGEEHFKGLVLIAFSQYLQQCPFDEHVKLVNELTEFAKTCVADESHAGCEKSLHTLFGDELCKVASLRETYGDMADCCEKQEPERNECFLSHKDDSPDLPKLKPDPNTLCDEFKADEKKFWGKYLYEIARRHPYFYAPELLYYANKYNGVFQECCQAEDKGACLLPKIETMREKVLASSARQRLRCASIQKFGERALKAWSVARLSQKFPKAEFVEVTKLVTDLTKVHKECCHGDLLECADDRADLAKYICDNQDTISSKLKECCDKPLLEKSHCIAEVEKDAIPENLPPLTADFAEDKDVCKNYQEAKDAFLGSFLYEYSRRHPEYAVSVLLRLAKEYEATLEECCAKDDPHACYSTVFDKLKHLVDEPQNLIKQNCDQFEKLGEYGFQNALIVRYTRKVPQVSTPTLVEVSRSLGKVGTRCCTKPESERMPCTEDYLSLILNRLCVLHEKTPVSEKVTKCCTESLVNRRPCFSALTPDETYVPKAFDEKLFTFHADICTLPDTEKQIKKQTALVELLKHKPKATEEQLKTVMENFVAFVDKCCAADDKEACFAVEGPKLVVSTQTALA
T1 sequence (P02769 25-607): as above

Row | SMILES | binding constant Kb [1, 2] | binding constant Kb ([1]; 303 K, BSA 1.0 µM, phosphate buffer) | binding constant Kb [1, 3] | binding constant Kb ([1]; BSA, 297 K) | Kb constant to BSA (BSA)
1 | C[C@H](NC(=O)[C@H](CCN)NC(=O)[C@@H](N)CCCCN)C(=O)NCC(=O)N[C@@H](CCCN)C(=O)N1CCC[C@H]1C(=O)N[C@@H](Cc1c[nH]cn1)C(=O)N[C@@H](CCCCN)C(=O)N[C@@H](CCCNC(=N)N)C(=O)O [L2, Lys-Dab-Ala-Gly-Orn-Pro-His-Lys-Arg] (H-K[Dab]AG[Orn]PHKR-OH) | 3.39 ± 0.06 × 10^4 dm^3mol^−1 | 1.10 ± 0.05 × 10^4 dm^3mol^−1 | 0.55 ± 0.02 × 10^4 dm^3mol^−1 | 3.39 × 10^4 dm^3mol^−1 | –
2 | N=C(N)NCCC[C@H](NC(=O)[C@H](CCCCN)NC(=O)[C@H](Cc1ccccc1F)NC(=O)[C@@H]1CCCN1C(=O)[C@H](CCCN)NC(=O)CNC(=O)[C@H](CCN)NC(=O)[C@H](CCN)NC(=O)[C@@H](N)CCCCN)C(=O)O [L3, Lys-Dab-Dab-Gly-Orn-Pro-Phe(2-F)-Lys-Arg] (H-K[Dab][Dab]G[Orn]P[Phe(2-F)]KR-OH) | 2.52 ± 0.07 × 10^4 dm^3mol^−1 | – | 0.76 ± 0.03 × 10^4 dm^3mol^−1 | – | –
3 | COc1cc2ncnc(Nc3ccc(F)c(Cl)c3)c2cc1OCCCN1CCOCC1 [gefitinib] | – | – | – | – | 8.32 × 10^4 dm^3mol^−1
4 | CS(=O)(=O)CCNCc1ccc(-c2ccc3ncnc(Nc4ccc(OCc5cccc(F)c5)c(Cl)c4)c3c2)o1 [lapatinib] | – | – | – | – | 2.24 × 10^5 dm^3mol^−1
5 | CCN(CC)CCNC(=O)c1c(C)[nH]c(/C=C2\C(=O)Nc3ccc(F)cc32)c1C [sunitinib] | – | – | – | – | 1.32 × 10^5 dm^3mol^−1
